In PMC8406801, “Naringenin Inhibits Platelet Activation and Arterial Thrombosis Through Inhibition of Phosphoinositide 3-Kinase and Cyclic Nucleotide Signaling” (Frontiers in Pharmacology, 2021):
“And” between values parts separate entries of the source, which are not always exact repeats. Identical values can stand only once.

Legend:
PRP of treated rats = assay: Ex vivo ADP (5 μM)-induced platelet aggregation after oral dosing; format: in vivo, rat; conditions: for Aggregation (%): ex vivo, Figure 8A; for ADP-induced platelet aggregation ex vivo: rats, ADP 5 μM, mean ± SD, n = 6, vehicle 63.2 ± 3.6
Description: (§1) Male SD rats were randomly divided into 5 groups with 6 rats in each group. […] Sixty minutes after the last sample treatment, blood was drawn from the abdominal aorta of rats into the siliconized vacutainers containing 1:9 (v/v) 3.8% sodium citrate. The collected blood was centrifuged at 100 × g for 10 min at room temperature to obtain PRP. […] The platelet counts of PRP were adjusted to 4×10^8 cells/mL using PPP. PRP was incubated for 5 min at 37°C and then stimulated by ADP (5 μM). The maximum platelet aggregation rate was determined as mentioned above.

PI3Kp110β = assay: Ex vivo immunoblotting of PI3Kp110β in ADP-stimulated PRP of treated rats; parameters: species or system rat; conditions: for PI3Kp110β / GAPDH (Fold to Control) / PI3Kp110β / GAPDH (raw data): ex vivo, Figure 8B
Description: as §1
(§2) For in vitro platelet aggregation, aliquots of washed platelets were preincubated with vehicle or various concentrations of naringenin for 5 min and stimulated with ADP (10 μmol/L) under stirring at 37°C for 5 min. For ex vivo platelet aggregation, PRP was incubated at 37°C for 5 min and stimulated with ADP (5 μmol/L) under stirring at 37 °C. The platelet aggregation was terminated by adding ethylenediaminetetraacetic acid (EDTA; 10 mM). Total protein was prepared using RIPA lysis buffer and protein content was determined by bicinchoninic acid (BCA) protein assay kit. Equal amounts of platelet proteins (30 μg) were separated on 10% SDS polyacrylamide gel electrophoresis (SDS-PAGE) and then transferred to poly vinylidene difluoride (PVDF) membranes and subjected to western blot. Blots were blocked with TBS-Tween 20 containing 5% BSA and probed with primary antibodies diluted in blocking solution at 4°C overnight followed by incubation with the corresponding HRP secondary antibodies. The protein bands were visualized using enhanced chemiluminescence (ECL).
(§3) Blood was collected and PRP was obtained after the last treatment. Platelet aggregation was induced by ADP (5 μmol/L) (A). Data are expressed as means ± SD (n = 6). After ADP stimulation, platelet proteins were then extracted and analyzed by immunoblotting using PI3Kp110β antibody (B) and phospho-specific antibodies such as Akt^Ser473 (C), Akt^Thr308 (D) and ERK1/2^Thr202/Tyr204 (E). Total level of GAPDH was measured on each sample as a loading control. The blots shown are representative of three separate experiments. The relative protein expression levels were quantified by ImageJ 1.47v software. The level of relative protein expression obtained with vehicle control was taken as 1. R represents the level of relative protein expression in resting platelets. Data are expressed as means ± SD (n = 3). *p < 0.05, **p < 0.01, ***p < 0.001 compared with the vehicle control group (Con).
(§4) To further investigate the antiplatelet mechanisms of naringenin ex vivo, several signaling molecules such as PI3Kp110β, Akt and ERK were detected. After oral administration of naringenin (200, 400, and 800 mg/kg) to rats for 7 days, rat PRP was prepared and stimulated by ADP (5 μmol/L), and platelets were lysed to determine protein phosphorylation levels using western blot.

[1] = tested on: VASP Ser157 phosphorylation; assay: Immunoblotting of phospho-VASP (Ser157) in ADP-stimulated washed platelets; format: cell-based, rat; conditions: for p-VASP(Ser157) / GAPDH (Fold to ADP only) / p-VASP(Ser157) / GAPDH (raw data): ADP-stimulated, Figure 7B
Description: as §2
VASP is a substrate for cAMP- and cGMP- dependent protein kinases, which mediate cAMP- and cGMP-dependent inhibitory signaling in platelets, respectively. Increased cAMP levels followed by the activation of cAMP-dependent protein kinase A (PKA) phosphorylates VASP at position Ser157, whereas the elevation of cGMP leads to VASP phosphorylation at position Ser239 by cGMP-dependent protein kinase G (PKG) ([Aszódi et al., 1999]; [Li et al., 2003a]). To further examine whether naringenin modulates cAMP- or cGMP-mediated inhibitory signaling, the phosphorylation of VASP (Ser157 and Ser239) in washed platelets on stimulation with ADP were measured in the absence or presence of naringenin (100, 200, 400, and 800 μM). […] To further confirm the antiplatelet effects of naringenin through PKA-dependent signaling, the effects of naringenin on platelet aggregation were measured in the presence of PKG inhibitor (Rp-8-Br-PET-cGMPS) and PKA inhibitor (H89).
FIGURE 7 Naringenin promotes VASP phosphorylation. The effects of naringenin on phosphorylation of VASP (at positions Ser 157 and Ser239) were measured in washed platelets upon stimulation with ADP (10 μmol/L) by western blotting (A). The blots shown are representative of three separate experiments. The phosphorylation levels were quantified by ImageJ 1.47v software. The level of phosphorylation obtained with vehicle control (0 μM) was taken as 1 (B,C). R represents the phosphorylation level in resting platelets. Data are expressed as means ± SD (n = 3). *p < 0.05, ***p < 0.001 compared with the vehicle control group. VASP phosphorylation at Ser239 was also analyzed in washed platelets incubated with 5 μmol/L PKA (H89), 30 μmol/L PKG (Rp-8-Br-PET-cGMPS), or 5 μmol/L PKC (GF109203X) inhibitors before treatment with naringenin (D). Washed platelets were incubated with vehicle or naringenin (200 μmol/L) at 37°C in the presence or absence of 5 μmol/L PKA (H89) or 30 μmol/L PKG (Rp-8-Br-PET-cGMPS) inhibitors. After treatment, platelets were stimulated with ADP (10 μmol/L) to trigger aggregation (E). Data are expressed as means ± SD (n = 6). ***p < 0.001 compared with the ADP-treated group, ^# p < 0.05, ^### p < 0.001 compared with naringenin alone or H89 alone.

washed rat platelets = assay: ADP (5 μM)-stimulated aggregation of washed platelets (Figure S1); format: cell-based; conditions: 200, 400 and 800 μM similar efficacy
From the text: Platelet aggregation was induced by ADP using washed platelets and PRP. […]
(1 picture or pasted object on this page, not shown here)

[2] = tested on: Akt Ser473 phosphorylation; assay: Ex vivo immunoblotting of phospho-Akt (Ser473) in ADP-stimulated PRP of treated rats; parameters: species or system rat; conditions: for p-Akt Ser473 / t-Akt (Fold to Control) / p-Akt Ser473 / t-Akt (raw data): ex vivo, Figure 8C
Description: as §1, §2, §3, §4

[3] = rats, oral 200, 400, and 800 mg/kg for 7 days, ADP 5 μmol/L

O=C1C[C@@H](c2ccc(O)cc2)Oc2cc(O)cc(O)c21 [Naringenin]
Aggregation (%) (PRP of treated rats; naringenin 200mg/kg): 44.3% and 43.6% and 49.2% and 46.7% and 39.1% and 43% | Aggregation (%) (PRP of treated rats; naringenin 400mg/kg): 34.4% and 37.3% and 35.4% and 28% and 25.8% and 22.9% | Aggregation (%) (PRP of treated rats; naringenin 800mg/kg): 12.7% and 17.8% and 16.5% and 21.5% and 19.3% and 11.6% | ADP-induced platelet aggregation ex vivo (PRP of treated rats; oral 200 mg/kg once a day for 7 days): 44.3 ± 3.4% | ADP-induced platelet aggregation ex vivo (PRP of treated rats; oral 400 mg/kg once a day for 7 days): 30.6 ± 5.9% | ADP-induced platelet aggregation ex vivo (PRP of treated rats; oral 800 mg/kg once a day for 7 days): 16.6 ± 3.8% | PI3Kp110β / GAPDH (Fold to Control) (PI3Kp110β; naringenin 200mg/kg): 0.9111 and 0.9256 and 1.0697 | PI3Kp110β / GAPDH (raw data) (PI3Kp110β; naringenin 200mg/kg): 0.4465 and 0.4536 and 0.5241 | PI3Kp110β / GAPDH (Fold to Control) (PI3Kp110β; naringenin 400mg/kg): 0.7818 and 0.8725 and 1.0518 | PI3Kp110β / GAPDH (raw data) (PI3Kp110β; naringenin 400mg/kg): 0.3831 and 0.4275 and 0.5154 | PI3Kp110β / GAPDH (Fold to Control) (PI3Kp110β; naringenin 800mg/kg): 0.6930 and 0.8263 and 0.7645 | PI3Kp110β / GAPDH (raw data) (PI3Kp110β; naringenin 800mg/kg): 0.3396 and 0.4049 and 0.3746 | expression of PI3Kp110β in rat PRP ex vivo (PI3Kp110β; [3]): only modest changes | phosphorylation of VASP at Ser157 ([1]; ADP-stimulated washed platelets, 100, 200, 400, and 800 μM): did not significantly alter | p-VASP(Ser157) / GAPDH (Fold to ADP only) ([1]; naringenin 200 μM): 1.6152 and 1.1716 and 1.5055 | p-VASP(Ser157) / GAPDH (raw data) ([1]; naringenin 200 μM): 0.7758 and 0.5628 and 0.7232 | p-VASP(Ser157) / GAPDH (Fold to ADP only) ([1]; naringenin 400 μM): 1.6752 and 1.3720 and 1.0597 | p-VASP(Ser157) / GAPDH (raw data) ([1]; naringenin 400 μM): 0.8047 and 0.6590 and 0.5090 | p-VASP(Ser157) / GAPDH (Fold to ADP only) ([1]; naringenin 800 μM): 1.6695 and 1.5145 and 1.3641 | p-VASP(Ser157) / GAPDH (raw data) ([1]; naringenin 800 μM): 0.8019 and 0.7275 and 0.6552 | effect on ADP (5 μM)-stimulated platelet aggregation (washed rat platelets): significant levels of inhibition | p-Akt Ser473 / t-Akt (Fold to Control) ([2]; naringenin 200mg/kg): 0.3581 and 0.2265 and 0.3338 | p-Akt Ser473 / t-Akt (raw data) ([2]; naringenin 200mg/kg): 0.3980 and 0.2517 and 0.3710 | p-Akt Ser473 / t-Akt (Fold to Control) ([2]; naringenin 400mg/kg): 0.1353 and 0.0873 and 0.1300 | p-Akt Ser473 / t-Akt (raw data) ([2]; naringenin 400mg/kg): 0.1504 and 0.0970 and 0.1445 | p-Akt Ser473 / t-Akt (Fold to Control) ([2]; naringenin 800mg/kg): 0.1415 and 0.0868 and 0.1240 | p-Akt Ser473 / t-Akt (raw data) ([2]; naringenin 800mg/kg): 0.1573 and 0.0965 and 0.1378 | phosphorylation of Akt at Ser473 in rat PRP ex vivo [2, 3]: significantly suppressed
